In one test the test system is THP-1 cells. Briefly: Lysosomal rupturing in THP-1 cells, IL-1β release. In kind it is cell-based, human. Particulars: PMA-differentiated THP-1 cells. The protocol:
Cell culture supernatants were assayed for IL-1β using ELISA kits from BD Biosciences (Franklin Lakes, NJ) according to the manufacturer's instructions. To measure intracellular IL-1β, cells were washed and subjected to three freeze thaw cycles in assay diluent. PMA-differentiated THP-1 cells were incubated with hypertonic DMEM medium containing 10% polyethylene glycol (PEG) 1000, 1.4 M sucrose, 20 mM Hepes (pH 7.2) and 5% FCS for […] at 37° C. Cells were subsequently washed and incubated in hypotonic DMEM medium [DMEM: H2O (3:2)] for 2 min to induce lysosomal rupturing. Cells were then incubated in serum free DMEM for additional 4 hours.

In test [1] the test system is caspase-1. Briefly: Caspase-1 activation in microglia (FLICA, confocal microscopy, flow cytometry). In kind it is cell-based, mouse. Particulars: microglia, FLICA. As for the experimental part: For assessment of microglia-induced neurotoxicity, CAD mouse neuronal cells^47 were seeded on poly-L-lysine coated glass cover slips and grown in F12/DMEM supplemented with ciprofloxacin (Cellgro, Manassas, Va.) and 10% fetal calf serum (Hyclone, Logan, Utah) for 24 h. Differentiation was induced by withdrawal of serum for 48 h Immortalized microglia from wildtype or caspase-1^−/− mice were added in serum free medium to obtain mixed neuronal/microglial cultures and immediately stimulated. 72 h after stimulation with Aβ or media, cells were fixed, stained for the neuron-specific marker TuJ-1 and microglial marker CD11b, and imaged by confocal microscopy (Leica SP2 AOBS). Caspase-1 activity in microglial cells was assessed using the caspase-1 FLICA™ kit (Immunochemistry Technologies, Bloomington, Minn.) according to the manufacturer's instructions.
For evaluation of lysosomal damage, cells were incubated with LysoTracker green (1:2000) for 30 min and stimulated as described. Lysosomal damage was defined as loss of LysoTracker fluorescence as assessed by flow cytometry. All flow cytometry experiments were performed on an LSRII cytometer (BD Biosciences), data were acquired by DIVA software (BD Biosciences) and analyzed with FlowJo software (Tree Star Inc., Ashland, Oreg.).
IL-1β maturation is controlled by caspase-1 after assembly of the inflammasome, a multi protein complex that activates pro-caspase-1. In order to test whether Aβ activates caspase-1, we measured levels of activated caspase-1 using a fluorescent cell permeable probe (FAM-YVAD-Fmk), which covalently binds only to activated caspase-1 (Fluorescent labeled Inhibitors of Caspases, FLICA)^14. […] Similar results were obtained in primary microglial cultures (FIG. 15c).
For orientation: In flow cytometry, cells or beads pass a laser one at a time.

Test [2] relates to caspase-1. The experiment in a line: Caspase-1 cleavage/activation in mouse macrophages (Western blot p10). The test is classed as cell-based. The protocol: (§1) Bone marrow derived macrophages were generated as described (Severa, M et al. Journal of Biological Chemistry 281:26188-26195 (2006)). Human PBMCs were isolated by from whole blood of healthy volunteers by density gradient centrifugation. Lysis of red blood cells was performed using red blood cell lysis buffer (Sigma). Experiments in PBMCs and macrophages were carried out at a cell density of 2×10^6 cells/ml. All primary cells and cell lines except THP-1 cells were cultured in DMEM supplemented with L-glutamine, ciprofloxacin (Cellgro, Manassas, Va.) and 10% fetal calf serum (Hyclone, Logan, Utah). THP-1 cells were cultured in RPMI supplemented with 10% fetal calf serum (Hyclone), L-glutamine, sodium pyruvate (Cellgro), and ciprofloxacin. One day prior to stimulation, THP-1 cells were differentiated using 0.5 μM PMA for three hours, washed three times and plated for stimulation. All experiments that were performed for Western blot analysis were carried out in serum free DMEM medium. ATP stimulations were carried out at 5 mM one hour prior to harvesting supernatants.
Cell culture supernatants were precipitated by adding an equal volume of methanol and 0.25 volumes of chloroform, vortexed and centrifuged at 20.000×g for 10 min. The upper phase was discarded and 500 μl of methanol was added to the interphase. This mixture was centrifuged at 20.000×g for 10 min and the protein pellet dried at 55° C., resuspended in Laemmli buffer and boiled at 99° C. for 5 min. Samples were separated by SDS-PAGE (15%) and transferred onto nitrocellulose membranes. As indicated, blots were incubated with rabbit polyclonal antibody to anti murine caspase-1 p10 (sc-514, Santa Cruz Biotechnology, Santa Cruz, Calif.), rabbit polyclonal anti human caspase-1 p10 (sc-515, Santa Cruz Biotechnology), rabbit polyclonal anti human cleaved IL-1β (Asp116) (Cell Signaling, Boston, Mass.) or rabbit polyclonal anti murine cathepsin B (R&D Systems, Minneapolis, Minn.).
Cell culture supernatants were precipitated by adding an equal volume of methanol and 0.25 volumes of chloroform, vortexed and centrifuged at 20,000×g for 10 min. The upper phase was discarded and 500 μl of methanol was added to the interphase. This mixture was centrifuged at 20,000×g for 10 min and the protein pellet dried at 55° C., resuspended in Laemmli buffer and boiled at 99° C. for 5 min Samples were separated by SDS-PAGE (15%) and transferred onto nitrocellulose membranes. Blots were incubated with rabbit polyclonal antibody to anti murine caspase-1 p10 (sc-514, Santa Cruz Biotechnology, Santa Cruz, Calif.).

Another test relates to mouse microglia. Briefly: IL-1β release from LPS-primed mouse microglia (ELISA). The test is classed as cell-based. Particulars: LPS-primed immortalized microglia. The protocol:
For primary cultures, bone marrow-derived macrophages and microglia were isolated as described^42,43 and cultured in DMEM supplemented with L-glutamine, ciprofloxacin (Cellgro, Manassas, Va.) and 10% fetal calf serum (Hyclone, Logan, Utah) Immortalized macrophage and microglial cell lines were generated using J2 recombinant retrovirus (carrying v-myc and v-raf oncogenes)^44,45. Briefly, primary bone marrow cells were incubated in L929 conditioned medium for 3-4 days to induce macrophage differentiation. Cells were then infected with J2 recombinant retrovirus and maintained in culture until cells were growing in the absence of conditioned medium. Similarly, primary mixed glial cultures were cultured until fully confluent. After two consecutive infections with J2 retrovirus, cells were maintained in normal medium until growth of microglial cells in colonies was observed. The semi-adherent colonies of microglial cells were washed off and cultured in new flasks. […] Microglial cell lines form wild type (C57/BL6), Caspase-1^−/− and IL-IR^−/− mice as well as macrophage cell lines from wild type (C57BL6), NALP3 -, IPAF- and ASC-deficient mice were generated and used for experiments as indicated.
(§2) Stimulations were carried out in serum free DMEM medium. Microglial cells and macrophages were primed with 100 U/ml IFNγ (Griess assay, TNF ELISA, real-time quantitative PCR) or 100 ng/ml ultrapure LPS (IL-1β ELISA, FLICA, ASC-CFP microglia cell line assay, Western blot) 1-3 h prior to stimulation with Aβ, revAβ, zymosan, ATP or transfection with dAdT.
Cell culture supernatants were assayed for IL-1β and TNFα using ELISA kits from R&D Systems (Minneapolis, Minn.) according to the manufacturer's instructions. Nitric oxide was measured by Griess reaction of nitrites accumulated in the supernatants using chemicals from Sigma.

Test [3] relates to lysosomes of mouse macrophages. The experiment in a line: Lysosomal acidification, proteolysis and rupture in mouse macrophages (LysoSensor Green, DQ ovalbumin, acridine orange, dextran). The test is classed as cell-based. As for the experimental part:
For evaluation of lysosomal rupture, cells were incubated with 1 μg/m1 acridine orange for 15 min, washed three times and subsequently stimulated as indicated. Lysosomal rupture can be assessed by loss of emission at 600-650 nm using flow cytometry. All flow cytometry experiments were performed on an LSRII cytometer (BD Biosciences). Data were acquired by DIVA (BD Biosciences) and analyzed by FlowJo software (Tree Star Inc., Ashland, Oreg.).
Confocal reflection microscopy was combined with fluorescence microscopy on a Leica SP2 AOBS confocal laser scanning microscope. Reflection was captured by placing the detector channel directly over the wavelength of the selected laser channel for reflection light capture and the AOBS was set to allow 5-15% of laser light into the collection channel. Fluorescence was simultaneously captured by standard confocal imaging techniques.

The test system of a further test is mouse macrophages. The experiment in a line: IL-1β release from LPS-primed mouse macrophages (bone marrow-derived, B6-MCLs), ELISA. In kind it is cell-based. The protocol:
as §1
Immortalized macrophage cell lines were generated using the previously described J2 recombinant retrovirus (carrying v-myc and v-raf/mil oncogenes) (Roberson, S. M. & Walker, W. S. Cellular immunology 116:341-351 (1988)). Briefly, primary bone marrow cells were incubated in L929 conditioned medium for 3-4 days to induce macrophage differentiation. Subsequently, cells were infected with J2 recombinant retrovirus. Cells were maintained in culture for 3-6 months slowly weaning off the percentage of L929 supernatant until cells were growing in the absence of conditioned medium.
Macrophage phenotype was verified by surface marker expression for CD11b and F480 as well as a range of functional parameters, including responsiveness to TLR ligands and bacterial uptake. Macrophage cell lines from wild-type (C57BL6), NALP3- and ASC-deficient mice were generated and are referred to as B6-MCLs, NALP3 -MCLs and ASC-MCLs.
Cell culture supernatants were assayed for IL-1β using ELISA kits from BD Biosciences (Franklin Lakes, NJ) according to the manufacturer's instructions. To measure intracellular IL-1β, cells were washed and subjected to three freeze thaw cycles in assay diluent.
as §2
On the technique in general: An ELISA detects its analyte on a solid surface through an enzyme-linked reagent.

“Also recorded” adds a separate entry of the source. Non-standard residues stand in square brackets, D forms with d. Residues, ends and D or L forms follow the SMILES beside them. *: point of attachment. Sta = CC(C)C[C@H](N)[C@@H](O)CC(=O)O; Isovaleryl = CC(C)CC(=O)*; Cbz = O=C(OCc1ccccc1)*; CH2F = FC*

Regarding `CCCNC(=O)[C@H]1O[C@@H]1C(=O)N[C@H](C(=O)N1CCC[C@H]1C(=O)OC)[C@@H](C)CC` [CA-074-Me], the “IL-1β release after lysosomal rupture, inhibitor present” value in the test with THP-1 cells is reported as “clearly reduced”. Also, the “caspase-1 activation after Aβ stimulation, inhibitor present” value in the test on caspase-1 [1] (flow cytometry) was “strongly and dose-dependently inhibited; also recorded: dose-dependently reduced”. For the same compound, the “caspase-1 activation induced by ATP, inhibitor present” value in the test with caspase-1 [1] (inhibitor 20 μM) was “not affected; also recorded: no effect”. Besides, the “caspase-1 activation after silica crystal treatment, inhibitor present” value in the test on caspase-1 [2] (LPS-primed B6-MCLs, CA-074-Me 10 μM (FIG. 5a)) is given as “much less caspase-1 activation”. Besides, the “caspase-1 cleavage after crystal-independent disruption of lysosomes, inhibitor present” value in the test on caspase-1 [2] (mouse macrophages, hypertonic then hypotonic media, CA-074-Me 10 or 2 μM) is given as “partially inhibited”. In addition, the “Aβ-induced IL-1β release in presence of cathepsin inhibitor” value with mouse microglia is reported as “dose-dependently inhibited”.

On to `COC(=O)[C@H](CC(C)C)NC(=O)[C@@H](N)CC(C)C` [Leu-Leu-OMe, L-leucyl-L-leucine methyl ester], for which, in test [3] (mouse macrophages, acridine orange, DQ ovalbumin, dextran), the “lysosomal rupture / loss of lysosomes caused by the stimulus” value was “considerable swelling and rupture of lysosomes”. Also, the “IL-1β produced in response to the stimulus” value with mouse macrophages (LPS-primed macrophages from wild-type mice) is listed as “large quantities of IL-1β”.

With `O=C(NC(Cc1ccccc1)C(=O)NC(Cc1ccccc1)C(=O)CF)OCc1ccccc1` (stereo not drawn) [Z-FF-FMK] (Cbz-Phe-Phe-CH2F; configuration not given here), the “Aβ-induced IL-1β release in presence of cathepsin inhibitor” value in the test with mouse microglia was “no effect; also recorded: no attenuation”.

Consider `CO/C1=C\C(C)=C\[C@@H](C)[C@@H](O)[C@@H](C)C/C(C)=C/C=C/[C@H](OC)[C@@H]([C@@H](C)[C@@H](O)[C@H](C)[C@@]2(O)C[C@@H](O)[C@H](C)[C@@H](C(C)C)O2)OC1=O` [bafilomycin A], for which the “formation of acidic lysosomes (LysoSensor Green)” value in test [3] (mouse macrophages) is “blocked”. Moreover, the “Leu-Leu-OMe-induced lysosomal morphology change and rupture, inhibitor present” value in test [3] (mouse macrophages (data not shown)) was “much less altered lysosomal morphology and rupture”. Moreover, in test [3] (mouse macrophages, bafilomycin 250 nM), the “appearance of fluorescent DQ ovalbumin (lysosomal proteolytic function)” value is “suppressed”. Moreover, in the test with mouse macrophages (LPS-primed B6-MCLs, 6 h), the “ATP-induced IL-1β release, inhibitor present” value is on record as “no effect” and the “silica-mediated IL-1β release, inhibitor present” value is “completely blocked”. For the same compound, the “release of IL-1b in response to Leu-Leu-OMe, inhibitor present” value with mouse macrophages (LPS-primed bone marrow-derived macrophages, bafilomycin 250 nM) is on record as “also inhibited”.

For `CC(C)CC(=O)N[C@H](C(=O)N[C@H](C(=O)N[C@@H](CC(C)C)[C@@H](O)CC(=O)N[C@@H](C)C(=O)N[C@@H](CC(C)C)[C@@H](O)CC(=O)O)C(C)C)C(C)C` [pepstatin A] (Isovaleryl-VV[Sta]A[Sta]-OH), the “Aβ-induced IL-1β release in presence of cathepsin inhibitor” value in the test with mouse microglia is listed as “no effect; also recorded: no attenuation”.

In the case of “poly(deoxyadenylic-thymidylic) acid sodium salt [poly(dA:dT)]”, the “caspase-1 cleavage induced by the stimulus” value with caspase-1 [2] (LPS-primed bone marrow-derived macrophages, wild-type) is reported as “induced in a dose dependent way”. Moreover, the “caspase-1 cleavage (p10) induced by the stimulus” value in the test with caspase-1 [2] (LPS-primed wild type bone marrow-derived macrophages, Aβ and reverse Aβ 10 μM) was “induced caspase-1 cleavage (p10)”.

The record behind these values is US20100150938A1, “METHODS AND COMPOSITIONS FOR REDUCING INFLAMMATION AND TREATING INFLAMMATORY DISORDERS” (UNIVERSITY OF MASSACHUSETTS, priority 2008, published 2010).
